Measured values reported in ChEMBL document CHEMBL4420080, “Inhibitors of sox18 protein activity for treating angiogenesis- and/or lymphangiogenesis-related diseases” (2018).
The source made the active and inactive calls. The rule behind the calls is not given here.

Columns and labels:
[1] = target: Transcription factor SOX-9 (Homo sapiens) (UniProt P48436); experiment: Inhibition of SOX9 in HUVEC assessed as reduction of SOX9-SOX9 interactions up to 200 uM incubated for 45 mins by Alpha-screen assay; format: cell-based
Sequence of Transcription factor SOX-9 (Homo sapiens) (P48436 whole entry): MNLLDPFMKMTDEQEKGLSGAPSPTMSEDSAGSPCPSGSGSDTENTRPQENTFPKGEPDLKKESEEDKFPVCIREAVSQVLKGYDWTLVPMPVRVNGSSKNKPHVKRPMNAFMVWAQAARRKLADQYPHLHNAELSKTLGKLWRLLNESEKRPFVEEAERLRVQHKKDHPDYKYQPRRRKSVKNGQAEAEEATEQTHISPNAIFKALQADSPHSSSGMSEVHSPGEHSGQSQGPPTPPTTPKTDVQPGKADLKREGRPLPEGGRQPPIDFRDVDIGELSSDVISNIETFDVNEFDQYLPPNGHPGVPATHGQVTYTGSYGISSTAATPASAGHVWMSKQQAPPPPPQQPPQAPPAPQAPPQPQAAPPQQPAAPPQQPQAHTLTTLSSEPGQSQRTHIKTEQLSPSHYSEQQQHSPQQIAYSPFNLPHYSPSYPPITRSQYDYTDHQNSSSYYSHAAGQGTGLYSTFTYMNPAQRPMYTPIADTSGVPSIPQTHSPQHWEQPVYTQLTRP

Mus musculus = species on record: Mus musculus; experiment: Inhibition of mouse phorbol ester receptor at 10 uM relative to control
[2] = target: Prostaglandin E2 receptor EP4 subtype (Homo sapiens) (UniProt P35408); experiment: Inhibition of human EP4 receptor at 10 uM relative to control
Sequence of Prostaglandin E2 receptor EP4 subtype (Homo sapiens) (P35408 whole entry): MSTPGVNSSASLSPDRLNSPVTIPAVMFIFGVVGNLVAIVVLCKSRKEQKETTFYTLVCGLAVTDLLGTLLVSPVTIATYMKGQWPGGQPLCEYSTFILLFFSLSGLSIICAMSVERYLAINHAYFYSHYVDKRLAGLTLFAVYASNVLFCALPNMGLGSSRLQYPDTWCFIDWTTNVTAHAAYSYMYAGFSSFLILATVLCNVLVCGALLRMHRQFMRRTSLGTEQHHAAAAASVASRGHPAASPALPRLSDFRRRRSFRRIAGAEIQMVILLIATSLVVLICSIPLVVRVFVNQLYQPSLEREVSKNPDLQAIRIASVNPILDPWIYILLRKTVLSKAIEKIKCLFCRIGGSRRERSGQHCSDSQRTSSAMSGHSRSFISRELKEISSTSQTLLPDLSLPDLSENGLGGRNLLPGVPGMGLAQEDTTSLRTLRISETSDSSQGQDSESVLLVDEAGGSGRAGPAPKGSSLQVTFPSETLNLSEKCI

4T1.2 [3] = experiment: Antitumor activity against mouse 4T1.2 cells implanted in BALB/c mouse undergoing sham surgery without excising tumor on day 12 assessed as effect on mouse survival at 25 mg/kg/day for 10 days; format: functional, organism-based
[4] = target: Transcription factor SOX-18 (Homo sapiens, UniProt P35713); experiment: Inhibition of SOX18 in HUVEC assessed as reduction of SOX18-ESR1 interactions incubated for 45 mins by Alpha-screen assay; format: cell-based
[5] = target: T1, Transcription factor SOX-18 (Mus musculus) (UniProt P43680); experiment: Competitive binding affinity to full-length mouse SOX18 expressed in Sf9 cells assessed as reduction in SOX1 8- DNA binding using FAM-labelled Prox1 -DNA element at 1 to 1000 uM incubated for 5 mins in dark at room temperature, 10 mins at 37 degC and 30 mins at room temperature by fluorescence polarization assay
T1 sequence (whole entry): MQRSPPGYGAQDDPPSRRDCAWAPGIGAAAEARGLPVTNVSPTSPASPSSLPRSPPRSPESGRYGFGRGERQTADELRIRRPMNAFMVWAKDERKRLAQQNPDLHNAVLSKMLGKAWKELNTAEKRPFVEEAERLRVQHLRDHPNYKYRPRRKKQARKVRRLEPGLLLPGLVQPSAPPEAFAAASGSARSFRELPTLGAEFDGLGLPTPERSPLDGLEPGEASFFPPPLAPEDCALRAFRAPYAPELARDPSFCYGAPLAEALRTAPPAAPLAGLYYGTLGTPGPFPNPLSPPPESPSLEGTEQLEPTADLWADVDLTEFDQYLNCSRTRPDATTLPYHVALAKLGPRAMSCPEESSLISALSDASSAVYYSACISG

[6] = target: Androgen receptor (Homo sapiens) (UniProt P10275); experiment: Inhibition of human androgen receptor at 10 uM relative to control
Sequence of Androgen receptor (Homo sapiens) (P10275 whole entry): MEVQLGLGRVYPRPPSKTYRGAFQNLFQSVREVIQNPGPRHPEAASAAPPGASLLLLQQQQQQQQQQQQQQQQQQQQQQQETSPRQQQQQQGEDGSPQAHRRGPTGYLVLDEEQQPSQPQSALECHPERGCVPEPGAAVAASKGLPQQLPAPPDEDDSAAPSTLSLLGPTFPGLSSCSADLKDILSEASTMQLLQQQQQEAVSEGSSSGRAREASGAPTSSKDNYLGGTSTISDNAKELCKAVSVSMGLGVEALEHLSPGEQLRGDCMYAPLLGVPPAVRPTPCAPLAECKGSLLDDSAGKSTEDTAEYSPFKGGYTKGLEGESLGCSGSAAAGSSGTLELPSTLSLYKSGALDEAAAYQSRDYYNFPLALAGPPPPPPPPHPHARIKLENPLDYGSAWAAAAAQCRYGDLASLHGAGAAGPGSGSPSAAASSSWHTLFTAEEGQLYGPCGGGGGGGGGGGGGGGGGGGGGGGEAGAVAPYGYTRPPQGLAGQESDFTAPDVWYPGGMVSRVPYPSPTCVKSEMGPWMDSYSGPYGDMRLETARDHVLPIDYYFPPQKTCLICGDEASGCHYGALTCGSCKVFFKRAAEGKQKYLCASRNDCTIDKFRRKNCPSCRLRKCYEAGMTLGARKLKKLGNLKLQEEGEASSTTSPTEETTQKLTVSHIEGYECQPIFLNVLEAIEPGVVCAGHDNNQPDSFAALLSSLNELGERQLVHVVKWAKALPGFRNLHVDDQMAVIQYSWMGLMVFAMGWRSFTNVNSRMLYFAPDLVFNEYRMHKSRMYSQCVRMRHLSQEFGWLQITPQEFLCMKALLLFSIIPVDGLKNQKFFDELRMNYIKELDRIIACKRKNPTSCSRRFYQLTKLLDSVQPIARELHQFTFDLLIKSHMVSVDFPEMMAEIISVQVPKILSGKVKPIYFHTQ

Danio rerio [7] = experiment: Induction of arterial and venous genes dys-regulation in zebrafish larvae harboring fli1 a:eGFP,-6.5kdrl:mCherry assessed as effect on mCherry gene expression at 1.5 uM dosed starting from 16 hpf and measured at 24 and 48 hpf by qRT-PCR analysis; format: functional, organism-based
[8] = target: Histone-lysine N-methyltransferase EZH2 (Homo sapiens) (UniProt Q15910); experiment: Inhibition of EZH2 in HUVEC assessed as reduction of EZH2 transcriptional activity by genome-wide RNA-seq and ChlP-seq analysis; format: cell-based
[9] = target: Cannabinoid receptor 1 (Homo sapiens) (UniProt P21554); experiment: Inhibition of human CB1 receptor at 10 uM relative to control
Sequence of Cannabinoid receptor 1 (Homo sapiens) (P21554 whole entry): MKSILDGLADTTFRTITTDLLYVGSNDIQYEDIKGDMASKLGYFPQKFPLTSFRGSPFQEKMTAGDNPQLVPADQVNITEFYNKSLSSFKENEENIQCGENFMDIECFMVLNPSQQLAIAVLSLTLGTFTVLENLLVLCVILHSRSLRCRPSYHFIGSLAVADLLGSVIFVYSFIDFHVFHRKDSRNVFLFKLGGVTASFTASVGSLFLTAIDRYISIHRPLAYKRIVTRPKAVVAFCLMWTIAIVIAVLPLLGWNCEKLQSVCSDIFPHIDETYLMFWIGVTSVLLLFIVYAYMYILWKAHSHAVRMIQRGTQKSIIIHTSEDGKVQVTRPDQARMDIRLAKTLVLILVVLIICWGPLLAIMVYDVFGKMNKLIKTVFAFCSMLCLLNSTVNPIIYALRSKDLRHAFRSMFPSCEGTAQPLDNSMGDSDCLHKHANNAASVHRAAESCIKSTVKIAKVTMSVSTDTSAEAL

[10] = target: D(1A) dopamine receptor (Homo sapiens) (UniProt P21728); experiment: Inhibition of human dopamine D1 receptor at 10 uM relative to control
Sequence of D(1A) dopamine receptor (Homo sapiens) (P21728 whole entry): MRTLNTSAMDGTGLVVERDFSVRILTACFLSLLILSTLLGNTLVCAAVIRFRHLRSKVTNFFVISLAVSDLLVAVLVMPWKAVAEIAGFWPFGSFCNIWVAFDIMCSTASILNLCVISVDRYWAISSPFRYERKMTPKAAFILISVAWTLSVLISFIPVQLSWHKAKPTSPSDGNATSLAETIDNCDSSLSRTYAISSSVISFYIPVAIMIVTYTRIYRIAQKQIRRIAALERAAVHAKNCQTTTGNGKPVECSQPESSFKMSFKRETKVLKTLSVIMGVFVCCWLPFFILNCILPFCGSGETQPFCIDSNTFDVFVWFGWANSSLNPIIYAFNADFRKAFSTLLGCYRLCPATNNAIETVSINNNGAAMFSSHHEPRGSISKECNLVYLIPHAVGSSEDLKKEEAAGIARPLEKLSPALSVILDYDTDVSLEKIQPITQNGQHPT

[11] = target: Histone deacetylase 4 (Homo sapiens) (UniProt P56524); experiment: Inhibition of human HDAC4 at 10 uM relative to control
Sequence of Histone deacetylase 4 (Homo sapiens) (P56524 whole entry): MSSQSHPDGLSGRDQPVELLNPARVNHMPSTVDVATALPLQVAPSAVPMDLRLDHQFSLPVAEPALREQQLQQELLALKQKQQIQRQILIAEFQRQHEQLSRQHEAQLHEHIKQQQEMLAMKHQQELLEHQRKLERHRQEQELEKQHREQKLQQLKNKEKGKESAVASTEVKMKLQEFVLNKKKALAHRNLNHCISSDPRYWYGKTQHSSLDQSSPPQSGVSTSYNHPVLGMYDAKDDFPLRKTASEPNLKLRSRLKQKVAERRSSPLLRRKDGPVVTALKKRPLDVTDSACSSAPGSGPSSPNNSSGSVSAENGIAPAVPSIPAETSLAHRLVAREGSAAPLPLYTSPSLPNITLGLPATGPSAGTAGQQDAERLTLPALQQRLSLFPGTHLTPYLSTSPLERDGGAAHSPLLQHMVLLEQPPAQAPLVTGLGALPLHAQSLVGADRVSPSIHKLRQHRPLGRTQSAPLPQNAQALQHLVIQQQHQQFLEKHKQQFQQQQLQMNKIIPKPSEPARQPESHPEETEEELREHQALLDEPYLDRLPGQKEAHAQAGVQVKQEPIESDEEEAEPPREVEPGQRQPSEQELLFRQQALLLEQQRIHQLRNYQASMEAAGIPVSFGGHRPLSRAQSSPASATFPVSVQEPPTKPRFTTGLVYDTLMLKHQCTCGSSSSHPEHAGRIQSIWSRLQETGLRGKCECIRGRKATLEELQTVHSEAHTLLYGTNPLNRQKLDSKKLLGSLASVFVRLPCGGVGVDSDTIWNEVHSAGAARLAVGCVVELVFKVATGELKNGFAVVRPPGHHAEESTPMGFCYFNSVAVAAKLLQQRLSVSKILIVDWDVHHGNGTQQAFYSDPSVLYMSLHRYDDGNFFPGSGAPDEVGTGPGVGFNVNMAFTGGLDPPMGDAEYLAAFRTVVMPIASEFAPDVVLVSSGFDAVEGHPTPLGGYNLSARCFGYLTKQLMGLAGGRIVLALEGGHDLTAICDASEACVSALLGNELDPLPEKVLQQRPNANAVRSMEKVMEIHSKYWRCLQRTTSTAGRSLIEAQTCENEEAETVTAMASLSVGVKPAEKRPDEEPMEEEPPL

Danio rerio [12] = experiment: Induction of vascular phenotype changes in zebrafish larvae harboring fli1 a:eGFP,-6.5kdrl:mCherry assessed as induction of posterior cardinal vein enlargement with arteriovenous shunts and incomplete trunk circulation at 1.5 uM dosed starting from 16 hpf; format: functional, organism-based
[13] = target: Estrogen receptor (Homo sapiens) (UniProt P03372); experiment: Inhibition of human ERalpha at 10 uM relative to control
[14] = target: T2, GABA-A receptor; anion channel (Rattus norvegicus) (UniProt O09028+P15431+P18506+P18508+P19969+P20236+P23574+P23576+P28471+P28473+P30191+P62813+P63079+P63138+Q91ZM7+Q9ES14); experiment: Inhibition of rat GABAA channel flunitrazepam binding site at 10 uM relative to control; format: protein-complex assay
[15] = target: Glutamate NMDA receptor (Rattus norvegicus) (UniProt P35439+Q00959+Q00960+Q00961+Q62645+Q8VHN2+Q9R1M7); experiment: Inhibition of rat NMDA glutamate receptor at 10 uM relative to control; format: protein-complex assay
[16] = target: Adenosine receptor A2a (Homo sapiens) (UniProt P29274); experiment: Inhibition of human adenosine A2A receptor at 10 uM relative to control
Sequence of Adenosine receptor A2a (Homo sapiens) (P29274 whole entry): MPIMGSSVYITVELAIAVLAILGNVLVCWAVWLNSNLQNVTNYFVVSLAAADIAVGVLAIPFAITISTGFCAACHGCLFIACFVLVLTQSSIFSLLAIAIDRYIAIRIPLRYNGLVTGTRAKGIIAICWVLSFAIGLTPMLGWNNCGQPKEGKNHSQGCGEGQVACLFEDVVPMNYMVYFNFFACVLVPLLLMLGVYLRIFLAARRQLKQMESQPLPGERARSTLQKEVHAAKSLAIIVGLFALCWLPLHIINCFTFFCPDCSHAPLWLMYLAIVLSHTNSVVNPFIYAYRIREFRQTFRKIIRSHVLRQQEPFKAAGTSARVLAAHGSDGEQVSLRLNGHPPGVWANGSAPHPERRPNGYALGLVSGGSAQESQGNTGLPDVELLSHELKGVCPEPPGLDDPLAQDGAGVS

Danio rerio [17] = experiment: Induction of arterial and venous genes dys-regulation in zebrafish larvae harboring fli1 a:eGFP,-6.5kdrl:mCherry assessed as effect on hey1 gene expression at 1.5 uM dosed starting from 16 hpf and measured at 24 and 48 hpf by qRT-PCR analysis; format: functional, organism-based
[18] = target: T2, GABA-A receptor; anion channel (Rattus norvegicus); experiment: Inhibition of rat GABAA channel muscimol binding site at 10 uM relative to control; format: protein-complex assay
4T1.2 [19] = experiment: Antitumor activity against mouse 4T1.2 cells implanted in BALB/c mouse assessed as median disease latency time at 50 mg/kg/day for 10 days (Rvb =40 days); format: functional
[20] = target: Transcription factor Jun (Homo sapiens) (UniProt P05412); experiment: Inhibition of c-JUN in HUVEC assessed as reduction of c-JUN transcriptional activity by genome-wide RNA-seq and ChlP-seq analysis; format: cell-based
Sequence of Transcription factor Jun (Homo sapiens) (P05412 whole entry): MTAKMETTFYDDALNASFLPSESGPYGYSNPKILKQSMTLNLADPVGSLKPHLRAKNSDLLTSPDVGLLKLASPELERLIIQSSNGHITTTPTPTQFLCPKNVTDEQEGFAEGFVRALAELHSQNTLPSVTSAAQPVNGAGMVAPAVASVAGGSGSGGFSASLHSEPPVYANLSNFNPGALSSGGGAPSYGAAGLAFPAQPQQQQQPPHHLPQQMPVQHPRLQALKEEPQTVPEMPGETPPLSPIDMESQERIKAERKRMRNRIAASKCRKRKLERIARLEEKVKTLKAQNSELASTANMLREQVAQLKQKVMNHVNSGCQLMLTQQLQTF

[21] = target: Beta-2 adrenergic receptor (Homo sapiens) (UniProt P07550); experiment: Inhibition of human adrenergic beta2 receptor at 10 uM relative to control
[22] = target: Transcription factor SOX-9 (Homo sapiens) (UniProt P48436); experiment: Inhibition of SOX9 (unknown origin) expressed in African green monkey COS7 cells assessed as reduction in SOX9 transcriptional activity at; format: cell-based
4T1.2 [23] = experiment: Inhibition of tumor induced lymphangiogenesis response in mouse 4T1.2 cells implanted BALB/c mouse assessed as reduction in number of lymphatic endothelial cells at 25 mg/kg/day for 10 days by PROX1/podoplanin detection based immunofluorescent staining relative to control; format: functional; settings: 4T1.2, 240 h
[24] = target: D(2) dopamine receptor (Homo sapiens) (UniProt P14416); experiment: Inhibition of human dopamine D2S receptor at 10 uM relative to control
[25] = target: Alpha-1B adrenergic receptor (Rattus norvegicus) (UniProt P15823); experiment: Inhibition of rat adrenergic alpha1B receptor at 10 uM relative to control
[26] = target: Protein deacetylase HDAC6 (Homo sapiens) (UniProt Q9UBN7); experiment: Inhibition of human HDAC6 at 10 uM relative to control
[27] = Plasma concentration in BALB/c mouse xenografted with mouse 4T1.2 cells at 25 mg/kg/day for 10 days measured at day 7; format: ADME, organism-based
4T1.2 [28] = experiment: Inhibition of tumor induced vascular response in mouse 4T1.2 cells implanted BALB/c mouse assessed as reduction in number of endothelial cells in tumor region at 25 mg/kg/day for 10 days by ERG/EMCN-detection based immunofluorescent staining relative to control; format: functional; settings: 4T1.2, 240 h
Danio rerio [29] = experiment: Induction of arterial and venous genes dys-regulation in zebrafish larvae harboring fli1 a:eGFP,-6.5kdrl:mCherry assessed as effect on hey2 gene expression at 1.5 uM dosed starting from 16 hpf and measured at 24 and 48 hpf by qRT-PCR analysis; format: functional, organism-based

- inhibition [1]: inactive
- inhibition (Mus musculus): 15%
- inhibition [2]: 27%
- IC50 [4]: Not Active
- Activity [5]: Active
- inhibition [6]: 1%
- inhibition [8]: inactive
- inhibition [9]: 3%
- inhibition [10]: 12%
- inhibition [11]: 5.1%
- inhibition [13]: -10%
- inhibition [14]: -6%
- inhibition [15]: -5%
- inhibition [16]: 30%
- inhibition [18]: 6%
- inhibition [20]: inactive
- inhibition [21]: 2%
- inhibition [22]: inactive
- inhibition [24]: 15%
- inhibition [25]: -1%
- inhibition [26]: 1.1%
- concentration at 240 h [27]: 38300 ng/mL
Structure (SMILES): O=C(O)c1c(O)cccc1CCc1ccc2ccccc2c1
- Activity (4T1.2 [3]): inactive
- Activity (Danio rerio [7]): Active
- Activity (Danio rerio [12]): Active
- Activity (Danio rerio [17]): Active
- Time (4T1.2 [19]): 73 days
- inhibition in vivo at 25 mg/kg/day (4T1.2 [23]): 70%
- inhibition in vivo at 25 mg/kg/day (4T1.2 [28]): 48%
- Activity (Danio rerio [29]): Active
